Data on nine compounds can be found in patent US20180371044A1, “PEPTIDOMIMETIC MACROCYCLES” (Aileron Therapeutics, Inc., priority 2015, published 2018).

For orientation: EC50 means the concentration at which the effect is half-maximal. A lower EC50 goes with greater potency.

Where a SMILES comes first, the peptide text is derived from it. [ ]: non-standard residue; d: D form. The star is where a group is joined. NiPrTyr = CC(C)N[C@@H](Cc1ccc(O)cc1)C(=O)O; NMeY = CN[C@@H](Cc1ccc(O)cc1)C(=O)O; Nle = CCCC[C@H](N)C(=O)O; Abu = CC[C@H](N)C(=O)O; Hexanoyl = CCCCCC(=O)*; Aib = CC(C)(N)C(=O)O

For this assay, the target named is T1, human GHRH receptor (hGHRHR) (Homo sapiens, UniProt Q02643).
T1 construct: expressed in transfected cells; host or cells: Human 293 cells
T1 sequence (Q02643 23-423): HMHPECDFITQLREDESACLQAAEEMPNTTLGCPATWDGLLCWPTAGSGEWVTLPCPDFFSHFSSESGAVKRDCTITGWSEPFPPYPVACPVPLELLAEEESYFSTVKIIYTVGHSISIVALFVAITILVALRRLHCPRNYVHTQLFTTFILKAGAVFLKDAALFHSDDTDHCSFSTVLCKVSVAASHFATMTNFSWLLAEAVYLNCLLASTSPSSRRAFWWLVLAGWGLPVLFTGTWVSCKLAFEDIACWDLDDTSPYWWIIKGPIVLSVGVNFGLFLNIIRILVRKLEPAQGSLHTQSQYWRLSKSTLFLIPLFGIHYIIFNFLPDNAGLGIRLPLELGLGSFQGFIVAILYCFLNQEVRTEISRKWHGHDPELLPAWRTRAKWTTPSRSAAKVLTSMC
The experiment in a line: GHRHR agonism measured by cAMP (HTRF) in human 293 cells expressing hGHRHR.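 Also: receptor expressed transiently or stably, cells stimulated in serum-free medium, EC50 from a non-linear dose-response fit, maximal response defined by reference GHRH stimulation.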 The note with it: 30 min at RT. The format is cell-based. Background: Time-resolved FRET reads energy transfer from a long-lived donor to a nearby acceptor.

Description: GHRH (1-29) and cross-linked peptidomimetic macrocycles were tested for agonism at the human GHRH receptor (hGHRHR) at various concentrations. Human 293 cells transiently or stably expressing hGHRHR were detached from cell culture flasks with versene (Life Technologies™), suspended in serum-free medium (50 k cells/assay point), and stimulated for 30 min at RT with GHRH (1-29) (Bachem™) or cross-linked peptidomimetic macrocycles. cAMP was quantified using an HTRF®-based assay (CisBio) and used according to the manufacturer's instructions. An EC50 for each agonist was calculated from a non-linear fit of response vs dose (GraphPad™ Prism). The maximum response was determined by stimulating with 10 μM GHRH (1-29). (+=>50 nm; ++=>25-50 nm; +++=>10-25 nm; ++++=>1-10 nm; +++++=≤1 nm).

In the case of `CCCC[C@H](NC(=O)[C@@H](NC(=O)[C@H](CC(=O)O)NC(=O)[C@H](CCC(N)=O)NC(=O)[C@H](CC(C)C)NC(=O)[C@H](C)NC(=O)[C@H](CCCCN)NC(=O)[C@H](CCCNC(=N)N)NC(=O)[C@H](C)NC(=O)[C@H](CO)NC(=O)[C@H](CC(C)C)NC(=O)[C@H](CCC(N)=O)NC(=O)[C@H](C)NC(=O)[C@H](CC(C)C)NC(=O)[C@@H](NC(=O)[C@H](CCCCN)NC(=O)[C@H](CCCNC(=N)N)NC(=O)[C@H](Cc1ccc(O)cc1)NC(=O)[C@H](CO)NC(=O)[C@H](C)NC(=O)[C@@H](NC(=O)[C@H](Cc1ccccc1)NC(=O)[C@@H](NC(=O)[C@H](C)NC(=O)[C@H](CC(=O)O)NC(=O)[C@H](C)NC(=O)[C@H](Cc1ccc(O)cc1)NC)[C@@H](C)CC)[C@@H](C)O)C(C)C)[C@@H](C)CC)C(=O)N[C@@H](CO)C(=O)N[C@@H](CCCNC(=N)N)C(N)=O` [SP-35] (H-[NMeY]ADAIFTASYRKVLAQLSARKALQDI[Nle]SR-NH2), the EC50 was at most 1 nM. For `CCCC[C@H](NC(=O)[C@@H](NC(=O)[C@H](CC(=O)O)NC(=O)[C@H](CCC(N)=O)NC(=O)[C@H](CC(C)C)NC(=O)[C@H](C)NC(=O)[C@H](CCCCN)NC(=O)[C@H](CCCNC(=N)N)NC(=O)[C@H](C)NC(=O)[C@H](CO)NC(=O)[C@H](CC(C)C)NC(=O)[C@H](CCC(N)=O)NC(=O)[C@H](C)NC(=O)[C@H](CC(C)C)NC(=O)[C@@H](NC(=O)[C@H](CCCCN)NC(=O)[C@H](CCCNC(=N)N)NC(=O)[C@H](Cc1ccc(O)cc1)NC(=O)[C@H](CO)NC(=O)[C@H](C)NC(=O)[C@@H](NC(=O)[C@H](Cc1ccccc1)NC(=O)[C@@H](NC(=O)[C@H](C)NC(=O)[C@H](CC(=O)O)NC(=O)[C@H](C)NC(=O)[C@@H](N)Cc1ccc(O)cc1)[C@@H](C)CC)[C@@H](C)O)C(C)C)[C@@H](C)CC)C(=O)N[C@@H](CO)C(=O)N[C@@H](CCCNC(=N)N)C(N)=O` [SP-36] (H-YADAIFTASYRKVLAQLSARKALQDI[Nle]SR-NH2) the value was 1 to 10 nM; for `CCCC[C@H](NC(=O)[C@@H](NC(=O)[C@H](CC(=O)O)NC(=O)[C@H](CCC(N)=O)NC(=O)[C@H](CC(C)C)NC(=O)[C@H](C)NC(=O)[C@H](CCCCN)NC(=O)[C@H](CCCNC(=N)N)NC(=O)[C@H](C)NC(=O)[C@H](CO)NC(=O)[C@H](CC(C)C)NC(=O)[C@H](CCC(N)=O)NC(=O)[C@H](C)NC(=O)[C@H](CC(C)C)NC(=O)[C@@H](NC(=O)[C@H](CCCCN)NC(=O)[C@H](CCCNC(=N)N)NC(=O)[C@H](Cc1ccc(O)cc1)NC(=O)[C@H](CO)NC(=O)[C@H](C)NC(=O)[C@@H](NC(=O)[C@H](Cc1ccccc1)NC(=O)[C@@H](NC(=O)[C@H](C)NC(=O)[C@H](CC(=O)O)NC(=O)[C@H](C)NC(=O)[C@H](Cc1ccc(O)cc1)NC(C)C)[C@@H](C)CC)[C@@H](C)O)C(C)C)[C@@H](C)CC)C(=O)N[C@@H](CO)C(=O)N[C@@H](CCCNC(=N)N)C(N)=O` [SP-37] (H-[NiPrTyr]ADAIFTASYRKVLAQLSARKALQDI[Nle]SR-NH2), 1 to 10 nM; for `CCCCCC(=O)N[C@@H](Cc1ccc(O)cc1)C(=O)N[C@@H](C)C(=O)N[C@@H](CC(=O)O)C(=O)N[C@@H](C)C(=O)N[C@H](C(=O)N[C@@H](Cc1ccccc1)C(=O)N[C@H](C(=O)N[C@@H](C)C(=O)N[C@@H](CO)C(=O)N[C@@H](Cc1ccc(O)cc1)C(=O)N[C@@H](CCCNC(=N)N)C(=O)N[C@@H](CCCCN)C(=O)N[C@H](C(=O)N[C@@H](CC(C)C)C(=O)N[C@@H](C)C(=O)N[C@@H](CCC(N)=O)C(=O)N[C@@H](CC(C)C)C(=O)N[C@@H](CO)C(=O)N[C@@H](C)C(=O)N[C@@H](CCCNC(=N)N)C(=O)N[C@@H](CCCCN)C(=O)N[C@@H](C)C(=O)N[C@@H](CC(C)C)C(=O)N[C@@H](CCC(N)=O)C(=O)N[C@@H](CC(=O)O)C(=O)N[C@H](C(=O)N[C@@H](CCCC)C(=O)N[C@@H](CO)C(=O)N[C@@H](CCCNC(=N)N)C(N)=O)[C@@H](C)CC)C(C)C)[C@@H](C)O)[C@@H](C)CC` [SP-39] (Hexanoyl-YADAIFTASYRKVLAQLSARKALQDI[Nle]SR-NH2), 1 to 10 nM. For `CCCC[C@H](NC(=O)[C@@H](NC(=O)[C@H](CC(=O)O)NC(=O)[C@H](CCC(N)=O)NC(=O)[C@H](CC(C)C)NC(=O)[C@H](C)NC(=O)[C@H](CCCCN)NC(=O)[C@H](CCCNC(=N)N)NC(=O)[C@H](C)NC(=O)[C@H](CO)NC(=O)[C@H](CC(C)C)NC(=O)[C@H](CCC(N)=O)NC(=O)[C@H](C)NC(=O)[C@H](CC(C)C)NC(=O)[C@@H](NC(=O)[C@H](CCCCN)NC(=O)[C@H](CCCNC(=N)N)NC(=O)[C@H](Cc1ccc(O)cc1)NC(=O)[C@H](CO)NC(=O)[C@H](C)NC(=O)[C@@H](NC(=O)[C@H](Cc1ccccc1)NC(=O)[C@@H](NC(=O)[C@H](C)NC(=O)[C@H](CC(=O)O)NC(=O)[C@H](C)NC(=O)[C@H](Cc1ccc(O)cc1)NC(C)=O)[C@@H](C)CC)[C@@H](C)O)C(C)C)[C@@H](C)CC)C(=O)N[C@@H](CO)C(=O)N[C@@H](CCCNC(=N)N)C(N)=O` [SP-40] (Ac-YADAIFTASYRKVLAQLSARKALQDI[Nle]SR-NH2) the value was 1 to 10 nM; for `CCCC[C@H](NC(=O)[C@@H](NC(=O)[C@H](CC(=O)O)NC(=O)[C@H](CCC(N)=O)NC(=O)[C@H](CC(C)C)NC(=O)[C@H](C)NC(=O)[C@H](CCCCN)NC(=O)[C@H](CCCNC(=N)N)NC(=O)[C@H](C)NC(=O)[C@H](CO)NC(=O)[C@H](CC(C)C)NC(=O)[C@H](CCC(N)=O)NC(=O)[C@H](C)NC(=O)[C@H](CC(C)C)NC(=O)[C@@H](NC(=O)[C@H](CCCCN)NC(=O)[C@H](CCCNC(=N)N)NC(=O)[C@H](Cc1ccc(O)cc1)NC(=O)[C@H](CO)NC(=O)C(C)(C)NC(=O)[C@@H](NC(=O)[C@H](Cc1ccccc1)NC(=O)[C@@H](NC(=O)[C@H](C)NC(=O)[C@H](CC(=O)O)NC(=O)[C@H](C)NC(=O)[C@H](Cc1ccc(O)cc1)NC)[C@@H](C)CC)[C@@H](C)O)C(C)C)[C@@H](C)CC)C(=O)N[C@@H](CO)C(=O)N[C@@H](CCCNC(=N)N)C(N)=O` [SP-41] (H-[NMeY]ADAIFT[Aib]SYRKVLAQLSARKALQDI[Nle]SR-NH2), at most 1 nM; for `CCCC[C@H](NC(=O)[C@@H](NC(=O)[C@H](CC(=O)O)NC(=O)[C@H](CCC(N)=O)NC(=O)[C@H](CC(C)C)NC(=O)[C@H](C)NC(=O)[C@H](CCCCN)NC(=O)[C@H](CCCNC(=N)N)NC(=O)[C@H](C)NC(=O)[C@H](CO)NC(=O)[C@H](CC(C)C)NC(=O)[C@H](CCC(N)=O)NC(=O)[C@H](C)NC(=O)[C@H](CC(C)C)NC(=O)[C@@H](NC(=O)[C@H](CCCCN)NC(=O)[C@H](CCCNC(=N)N)NC(=O)[C@H](Cc1ccc(O)cc1)NC(=O)[C@H](CO)NC(=O)[C@@H](NC(=O)[C@@H](NC(=O)[C@H](Cc1ccccc1)NC(=O)[C@@H](NC(=O)[C@H](C)NC(=O)[C@H](CC(=O)O)NC(=O)[C@H](C)NC(=O)[C@H](Cc1ccc(O)cc1)NC)[C@@H](C)CC)[C@@H](C)O)[C@@H](C)O)C(C)C)[C@@H](C)CC)C(=O)N[C@@H](CO)C(=O)N[C@@H](CCCNC(=N)N)C(N)=O` [SP-42] (H-[NMeY]ADAIFTTSYRKVLAQLSARKALQDI[Nle]SR-NH2), 1 to 10 nM.

The compound `CCCC[C@H](NC(=O)[C@@H](NC(=O)[C@H](CC(=O)O)NC(=O)[C@H](CCC(N)=O)NC(=O)[C@H](CC(C)C)NC(=O)[C@H](C)NC(=O)[C@H](CCCCN)NC(=O)[C@H](CCCNC(=N)N)NC(=O)[C@H](C)NC(=O)[C@H](CO)NC(=O)[C@H](CC(C)C)NC(=O)[C@H](CCC(N)=O)NC(=O)[C@H](C)NC(=O)[C@H](CC(C)C)NC(=O)[C@@H](NC(=O)[C@H](CCCCN)NC(=O)[C@H](CCCNC(=N)N)NC(=O)[C@H](Cc1ccc(O)cc1)NC(=O)[C@H](CO)NC(=O)[C@H](CCC(N)=O)NC(=O)[C@@H](NC(=O)[C@H](Cc1ccccc1)NC(=O)[C@@H](NC(=O)[C@H](C)NC(=O)[C@H](CC(=O)O)NC(=O)[C@H](C)NC(=O)[C@H](Cc1ccc(O)cc1)NC)[C@@H](C)CC)[C@@H](C)O)C(C)C)[C@@H](C)CC)C(=O)N[C@@H](CO)C(=O)N[C@@H](CCCNC(=N)N)C(N)=O` [SP-43] (H-[NMeY]ADAIFTQSYRKVLAQLSARKALQDI[Nle]SR-NH2) registered an EC50 of at most 1 nM. Compound `CCCC[C@H](NC(=O)[C@@H](NC(=O)[C@H](CC(=O)O)NC(=O)[C@H](CCC(N)=O)NC(=O)[C@H](CC(C)C)NC(=O)[C@H](C)NC(=O)[C@H](CCCCN)NC(=O)[C@H](CCCNC(=N)N)NC(=O)[C@H](C)NC(=O)[C@H](CO)NC(=O)[C@H](CC(C)C)NC(=O)[C@H](CCC(N)=O)NC(=O)[C@H](CC)NC(=O)[C@H](CC(C)C)NC(=O)[C@@H](NC(=O)[C@H](CCCCN)NC(=O)[C@H](CCCNC(=N)N)NC(=O)[C@H](Cc1ccc(O)cc1)NC(=O)[C@H](CO)NC(=O)[C@H](C)NC(=O)[C@@H](NC(=O)[C@H](Cc1ccccc1)NC(=O)[C@@H](NC(=O)[C@H](C)NC(=O)[C@H](CC(=O)O)NC(=O)[C@H](C)NC(=O)[C@H](Cc1ccc(O)cc1)NC)[C@@H](C)CC)[C@@H](C)O)C(C)C)[C@@H](C)CC)C(=O)N[C@@H](CO)C(=O)N[C@@H](CCCNC(=N)N)C(N)=O` [SP-44] (H-[NMeY]ADAIFTASYRKVL[Abu]QLSARKALQDI[Nle]SR-NH2) had an EC50 of 1 to 10 nM.
